Literature values as cited in patent publication US9414584B2, “Stabilized hypohalous acid solutions” (PURICORE, INC., priority 2011, dated 2016).
Where two headings read alike, the source gives them in different places.

Experiments:
E. coli [1] = system: E. coli
E. coli [2] = conditions: 2.6 ppm; dilute bacterial suspensions; about 5 minutes
Escherichia coli = Escherichia coli exposed to hypochlorous acid

Compound | time for 25 mg/mL solution to reach 20 mg/mL of free residual chlorine (20° C., Arrhenius calculation from studies at 50° C. and 70° C.) [days] | loss of titrable chlorine (in the first 6 months) | loss of titrable chlorine (within a year) | concentration required for 100% kill in 5 minutes (E. coli [1]) [ppm] | growth inhibition of E. coli (E. coli [2]) [%] | concentration required for 100% kill in 5 minutes (S. typhosa) [ppm] | concentration required for 100% kill in 5 minutes (A. aerogenes) [ppm] | concentration required for 100% kill in 5 minutes (S. dysenteriae) [ppm] | time to lose viability (Escherichia coli)
OCl [sodium hypochlorite solution, sodium hypochlorite] | 166 | approximately 20% | up to 60% | – | – | – | – | – | –
OCl [hypochlorous acid] | – | – | – | 0.03 | 100 | 0.06 | 0.08 | 0.05 | less than 100 ms
